Peptide text beside a SMILES is read from it.

As usually defined, the IC50 is the concentration that gives 50% inhibition. Read a high IC50 as weaker potency in that assay.

One data set addresses T1, H-2 K^b (Mus musculus, UniProt P01901).
T1 sequence (P01901 22-369): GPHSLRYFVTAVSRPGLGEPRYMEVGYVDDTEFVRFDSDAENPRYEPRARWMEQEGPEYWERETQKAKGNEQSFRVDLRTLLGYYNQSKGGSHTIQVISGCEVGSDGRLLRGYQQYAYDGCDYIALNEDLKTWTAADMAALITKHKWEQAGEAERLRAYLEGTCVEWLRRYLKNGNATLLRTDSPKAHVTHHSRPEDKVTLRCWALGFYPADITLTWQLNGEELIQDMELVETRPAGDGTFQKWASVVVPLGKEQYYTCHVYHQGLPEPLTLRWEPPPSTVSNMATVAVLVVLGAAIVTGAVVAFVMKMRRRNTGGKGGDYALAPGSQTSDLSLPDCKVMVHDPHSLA
T1 sequence (P01887 21-119 partner): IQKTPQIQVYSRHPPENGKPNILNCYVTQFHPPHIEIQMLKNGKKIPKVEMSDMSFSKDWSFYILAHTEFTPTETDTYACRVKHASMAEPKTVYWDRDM
In words: RMA-S K^b stabilization assay.

The conditions of data set [1]: C57BL/6J mice, 37C, up to 60 minutes.

Description for H-2 K^b: Data was analyzed after normalization and modeling using ECAnything (Prism 8). […] (A) RMA-S K^b stabilization assay. Variant peptides were titrated, added to RMA-S cells, and the relative H-2 K^b surface expression (MFI) was determined by flow cytometry. […] Each assay was repeated 4 times.
Titrated (100uM to 1pM) were added to RMA-S cells (5x10^4/well) and cultured overnight at 27C in 5% CO2. The cells were the shifted to 37C for 1–2 hours, and then their surface expression of K^b was analyzed by flow cytometry.
Normalized and fitted data from Fig 6A.using the ECanything nonlinear regression model (Prism 8) to fit the curves. By setting F = 50, the IC50 was determined for each data set. The points are the experimental data, the solid lines are the fitted line, and the dashed lines are the 95% confidence intervals. This experiment was repeated four times with similar results.

Compound `CC[C@H](C)[C@H](N)C(=O)N[C@@H](CCSC)C(=O)N[C@@H](Cc1ccc(O)cc1)C(=O)N[C@@H](CC(N)=O)C(=O)N[C@@H](Cc1ccc(O)cc1)C(=O)N1CCC[C@H]1C(=O)N[C@H](C(=O)N[C@@H](CCSC)C(=O)O)[C@@H](C)O` [A10T] (H-IMYNYPTM-OH) registered a half-inhibitory concentration (IC50) against H-2 K^b of 28.1 µM.
For the compound `CC[C@H](C)[C@H](N)C(=O)N[C@@H](CCSC)C(=O)N[C@@H](Cc1ccc(O)cc1)C(=O)N[C@@H](CC(N)=O)C(=O)N[C@@H](Cc1ccc(O)cc1)C(=O)N1CCC[C@H]1C(=O)N[C@H](C(=O)N[C@@H](CCSC)C(=O)O)C(C)C` [A10V] (H-IMYNYPVM-OH), the IC50 against H-2 K^b was 21.3 µM.
With `CC[C@H](C)[C@H](N)C(=O)N[C@@H](CCSC)C(=O)N[C@@H](Cc1ccc(O)cc1)C(=O)N[C@@H](CC(N)=O)C(=O)N[C@@H](Cc1ccc(O)cc1)C(=O)N1CCC[C@H]1C(=O)N[C@@H](C)C(=O)N[C@H](C(=O)O)[C@@H](C)CC` [M11I] (H-IMYNYPAI-OH), the IC50 against H-2 K^b was determined as 29.1 µM.
As to `CC[C@H](C)[C@H](N)C(=O)N[C@@H](CCSC)C(=O)N[C@@H](Cc1ccc(O)cc1)C(=O)N[C@@H](CC(N)=O)C(=O)N[C@@H](Cc1ccc(O)cc1)C(=O)N[C@@H](CO)C(=O)N[C@@H](C)C(=O)N[C@@H](CCSC)C(=O)O` [P9S] (H-IMYNYSAM-OH), the IC50 at H-2 K^b is 59.3 µM. This IC50 is about 2-fold higher than that of the compound before.
As for `CC[C@H](C)[C@H](NC(=O)[C@@H](NC(=O)[C@@H](N)CO)[C@@H](C)CC)C(=O)N[C@@H](CC(N)=O)C(=O)N[C@@H](Cc1ccccc1)C(=O)N[C@@H](CCC(=O)O)C(=O)N[C@@H](CCCCN)C(=O)N[C@@H](CC(C)C)C(=O)O` [reference compound], 7.32 µM corresponded to half-maximal inhibition against H-2 K^b (IC50).
As for IMANAPAM, the “Stabilization of K^b (in words)” value at H-2 K^b (RMA-S cells, surface K^b by flow cytometry, negative control peptide) was “failed to stabilize K^b”.
On to MSQIMYNYPTMLGHAGDMAGYAGTLQSLGAEIAV, for which the cleaved bond result in data set [1] is reported as “Y21-A22”.

The values above are taken from paper PMC7597557 (PLoS Pathogens, 2020).
